Experimental data as given in US20040208919A1, “Vaccination against prion diseases” (priority 2002, published 2004).
Where “and” joins values, the source holds several entries; their conditions need not be identical. Identical values can stand only once.

Tested on: primary rat hippocampal neurons
Format: cell-based

WGQPHGGG [PrP 57-64]
Cell death %: 0 ± 5% and 3 ± 4%

KTNMKHMAGAAAAGAVVGGLG [PrP 106-126]
Neuronal death, mode and dose dependence: occurred by apoptosis in a dose dependent manner | Neurotoxicity compared with the other synthetic PrP fragments: most neurotoxic fragment

NGAKALMGGHGATKVMVGAAA [PrP 106-126 scrambled, reference compound]
Cell death %: 3 ± 2% and 8 ± 3%

WGQGGGTHSQWNKPSKPK [PrP 89-106]
Cell death %: 5 ± 2% and 2 ± 6%
